SMILES strings stand for the structures. Activity calls are given as the source filed them. No rule for the calls is given here. Some results are limits rather than exact numbers.

The assay deals with Serine/threonine-protein kinase mTOR (Homo sapiens) (UniProt P42345). The assay can be described thus: binders of mTOR FRB domain, biophysical, NMR (AID 1648). The following applies: NMR binding to FRB domain, chemical shift.
Sequence of Serine/threonine-protein kinase mTOR (Homo sapiens) (P42345 2015-2114): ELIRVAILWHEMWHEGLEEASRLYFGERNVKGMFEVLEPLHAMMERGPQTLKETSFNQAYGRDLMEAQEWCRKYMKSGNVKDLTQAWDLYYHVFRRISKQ
Regarding `Cc1nccn1CCC(=O)O`, the Kd is > 4 mM (inactive). With `Cn1c(C(=O)O)ccc1S(N)(=O)=O` the figure was > 4 mM (inactive); with `Cc1oc(-c2ccccc2)cc1CO`, > 4 mM (inactive); with `CCOc1ccc(C)cc1S(=O)(=O)n1ccnc1`, > 4 mM (inactive). With `O=C(O)c1cnn2ccccc12` the figure was > 4 mM (inactive); with `Cc1nnc(N2CCN(Cc3ccccc3)CC2)[nH]c1=O`, > 4 mM (inactive); with `OC12CC3CC(C1)C1(NCCS1)C(C3)C2` (configuration not stated), > 4 mM (inactive). With `COc1cc2cc3c4cc(OC)c(OC)cc4cc[n+]3c(C)c2cc1OC` the figure was > 4 mM (inactive); with `Nc1nnc(Cc2ccc(Cl)cc2)s1`, > 4 mM (inactive); with `O=S(=O)(c1ccc(F)c(Cl)c1)N1CCCC1`, > 4 mM (inactive). In the case of `CC(CCC(=O)O)[C@H]1CCC2C3C[C@H](O)[C@@H]4C[C@H](O)CC[C@]4(C)C3CC[C@@]21C` (some centres not stated), the Kd is > 4 mM (inactive). Under `C/C=C/C=N/NC(=O)c1ccc(=O)n(C)c1` stands > 4 mM (inactive); under `O=C(O)c1ccc2c(c1)OCO2`, > 4 mM (inactive); under `CC(CCC(=O)O)[C@H]1CCC2C3C(C[C@H](O)[C@@]21C)[C@@]1(C)CC[C@@H](O)C[C@H]1C[C@H]3O` (some centres not stated), > 4 mM (inactive).

In the case of `COc1cc(C(=S)N2CCCC2)cc(Cl)c1O`, the Kd was > 4 mM (inactive). With `Fc1cccc(Cl)c1CN1CCNCC1` the figure was > 4 mM (inactive); with `NC(=O)CNC(=O)c1ccc2ccccc2n1`, > 4 mM (inactive); with `O=C(Nc1c[nH]c(=O)[nH]c1=O)c1ccccc1F`, > 4 mM (inactive). On to `CCC1(CC)C(=O)N=C(N)NC1=O`, for which the Kd was > 4 mM (inactive). With `O=C1Nc2ccccc2C1C1(O)C(=O)Nc2ccc(F)cc21` (configuration not stated) the figure was > 4 mM (inactive). With `Cn1c(=O)cc(O)c2ccccc21` the figure was > 4 mM (inactive); with `COc1ccc(/C=C2/NC(=S)NC2=O)cc1`, > 4 mM (inactive).

As for `Cc1nn(-c2ccccc2C(=O)O)c(=O)c2ccccc12`, the Kd was > 4 mM (inactive). Take `CCSc1n[nH]c(=O)[nH]c1=O`: the Kd was > 4 mM (inactive). With `CC(=O)Nc1ccc(N2C(=O)C=CC2=O)cc1C` the figure was > 4 mM (inactive). For `Cc1csc2nc(N)nn12`, the Kd was > 4 mM (inactive).

Regarding `C=CCc1cc(C(=O)N2CCCCC2)ccc1O`, the Kd was > 4 mM (inactive). As for `O=C(O)c1ccc(Nc2nncc(=O)[nH]2)cc1`, the Kd is > 4 mM (inactive). With `COc1ccc2c(c1)OCC(Cc1ccc(OC)c(OC)c1)C2=O` (configuration not stated) the figure was > 4 mM (inactive); with `O=C(Nc1ccccc1)Nc1ccccc1`, > 4 mM (inactive). With `O=C(CSc1ncn[nH]1)c1ccc2c(c1)OCO2` the figure was > 4 mM (inactive). Under `COc1c2occc2c(OC)c2c(=O)cc(C)oc12` stands > 4 mM (inactive); under `Cc1nnc(NCCN2CCOCC2)[nH]c1=O`, > 4 mM (inactive). As for `O=C1CC[C@]23/C=C/C(=O)NCCCCNCCCNC(=O)/C=C/c4ccc(c2c4)O[C@@H]3C1`, the Kd was > 4 mM (inactive).

As to `C=CCCCCCCCCCCCC(O)CC(O)COC(C)=O` (configuration not stated), the Kd was > 4 mM (inactive). With `NC[C@H]1O[C@H](O[C@H]2[C@H](O)[C@@H](O[C@H]3O[C@H](CO)[C@@H](O)[C@H](N)[C@H]3O)[C@H](N)C[C@@H]2N)[C@H](N)[C@@H](O)[C@@H]1O` the figure was > 4 mM (inactive); with `COc1ccc2c(c1)CCCN2C(N)=O`, > 4 mM (inactive).

For `CNC(=O)c1cc(C)c(-c2ccccc2)s1`, the Kd was > 4 mM (inactive). With `O=C(O)C1CSC(c2ccccc2)N1` (configuration not stated) the figure was > 4 mM (inactive); with `OCC1CCCN2CCCCC12` (configuration not stated), > 4 mM (inactive). In the case of `N#Cc1c(N)c(C(=O)c2ccccc2)n2c1CCC2`, the Kd is > 4 mM (inactive). With `Cc1n[nH]c(=S)n(/N=C/c2cccs2)c1=O` the figure was > 4 mM (inactive); with `CCN1C(=O)N(CO)C2C1N(C)C(=O)N2C` (configuration not stated), > 4 mM (inactive). Under `c1ccc2[nH]c(NCCN3CCOCC3)nc2c1` stands > 4 mM (inactive); under `Cc1cc(=O)c2c(O)cc(O)c(C)c2o1`, > 4 mM (inactive). Under `Cc1cccc(CO)n1` stands > 4 mM (inactive); under `CC(=O)O[C@@H]1CC2C(C)(C)C(=O)C=C[C@]2(C)C2CC[C@@]3(C)[C@H](c4ccoc4)OC(=O)[C@H]4O[C@]43[C@@]21C` (some centres not stated), > 4 mM (inactive); under `CC(=O)O[C@H]1C[C@@H](OC(C)=O)C(C)(C)C2C[C@@H](O)[C@]3(C)C(CC[C@@]4(C)[C@H](c5ccoc5)OC(=O)[C@H]5O[C@]543)[C@]21C` (some centres not stated), > 4 mM (inactive). For `O=C(O)c1ccc(-n2cccn2)cc1`, the Kd is > 4 mM (inactive). Under `Oc1cc(O)c2c(c1)O[C@H](c1ccc(O)c(O)c1)[C@H](O)C2` stands > 4 mM (inactive); under `O=C1NC(=Nc2ccccc2Cl)SC1(CO)CO`, > 4 mM (inactive); under `NS(=O)(=O)c1ccc(N=Cc2ccc[nH]2)cc1`, > 4 mM (inactive). With `NCC(=O)c1ccccc1` the figure was > 4 mM (inactive); with `OCc1cccc2c1OCCO2`, > 4 mM (inactive); with `CC1(O)CC2C=CC1C2` (configuration not stated), > 4 mM (inactive).

Consider `CSc1cccc(NC(=O)c2c(Cl)cnn2C)c1`, for which the Kd is > 4 mM (inactive). With `CCOC(=O)c1cc(C)n(C)n1`, the Kd was > 4 mM (inactive). Consider `COC(=O)[C@@H]1C(O)CC[C@H]2CN3CCc4c([nH]c5ccccc45)[C@@H]3C[C@@H]21` (some centres not stated), for which the Kd was > 4 mM (inactive). Under `O=C(CSc1ncccn1)NCc1ccco1` stands > 4 mM (inactive). Under `COc1ccc(-c2c(C)n([O-])c(C)c(C)[n+]2=O)cc1` stands > 4 mM (inactive); under `Cc1cc(-c2ccc(Cl)cc2)n2nc(N)nc2n1`, > 4 mM (inactive).

For the molecule `CC[C@@]1(O)C(=O)OCc2c1cc1n(c2=O)Cc2cc3ccccc3nc2-1`, the Kd was > 4 mM (inactive). With `NNC(=O)c1ccccc1-n1cccc1` the figure was > 4 mM (inactive); with `Cc1cc(NC(=O)c2cccc(S(C)(=O)=O)c2)no1`, > 4 mM (inactive). With `COc1ccc(Cl)cc1NC(=O)c1ccco1` the figure was > 4 mM (inactive); with `O=C(O)C1NCCc2ccccc21` (configuration not stated), > 4 mM (inactive); with `Cc1cc(C)c(-c2cc(C(F)(F)F)no2)c(=O)[nH]1`, > 4 mM (inactive). Consider `Nc1cccc(C(=O)Nc2ccc(N)cc2Cl)c1`, for which the Kd is > 4 mM (inactive). Consider `C[C@@H]1CCC2[C@](C)(CO)[C@@H](O)CC[C@]2(C)[C@@]12CC[C@@](CO)(CCO)O2` (some centres not stated), for which the Kd was > 4 mM (inactive). Turning to `Cc1nc2ccc(C(=O)N3CCSCC3)cc2s1`, the Kd was > 4 mM (inactive). On to `Cc1cc(=O)[nH]c(N)n1`, for which the Kd is > 4 mM (inactive). With `O=C1CN(c2ccccc2)CC(=O)N1` the figure was > 4 mM (inactive).

For orientation: Kd means a measure of binding affinity in units of concentration.

The record behind these values is PubChem BioAssay AID1648 (Sanford-Burnham Center for Chemical Genomics, 2009).
